The source made the active and inactive calls. The calls are words filed in the database; no cut-off is given here.
What was measured:
[1] = Inhibition of Aspergillus parasiticus NIAH-26 5'-hydroxyaverantin dehydrogenase
[2] = Inhibition of malate dehydrogenase at 3 mM

SMILES: CO[C@H]1[C@@H](O)[C@@]2(C)c3ccc4c(c3-c3c2c(coc3=O)[C@@H]1O)CCC4=O (relative stereo)
- IC50 [1]: 250 µM
- Activity [2]: inactive

From ChEMBL document CHEMBL1155649, “A new inhibitor of 5'-hydroxyaverantin dehydrogenase, an enzyme involved in aflatoxin biosynthesis, from Trichoderma hamatum” (J Nat Prod, 2000)
